Values after ≈ are worked out from the molar mass of the structure shown. Where a SMILES comes first, the peptide text is derived from it. Bridges are numbered along the chain shown (N, C = ends). Roman numbers before positions name the chains, in order. [ ]: non-standard residue; d: D form. Tle = CC(C)(C)[C@H](N)C(=O)O; dDab = NCC[C@@H](N)C(=O)O; hSer = N[C@@H](CCO)C(=O)O; Orn = NCCC[C@H](N)C(=O)O; Dab = NCC[C@H](N)C(=O)O; Abu = CC[C@H](N)C(=O)O; Dap = NC[C@H](N)C(=O)O
What was measured:
Format in all cases: cell-based
Escherichia coli 926415 = conditions: 926415
Summary of the method: (§1)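 CLSI broth microdilution in cation-adjusted Mueller-Hinton II broth with 0.002% polysorbate 80 (final), inoculum appr. 10^6 CFU/mL, peptides in serial two-fold dilutions. MIC (μg/mL) is the lowest concentration without visible growth after 18-20 h at 35° C.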

[1] = tested on: Klebsiella pneumoniae SSI #3010; conditions: SSI #3010
Summary of the method: as §1

[2] = tested on: Pseudomonas aeruginosa ATCC 27853; conditions: ATCC 27853
Summary of the method: as §1

[3] = tested on: Enterobacter cloacae 848840; conditions: 848840
Summary of the method: as §1

[4] = tested on: Acinetobacter baumannii 872842; conditions: 872842
Summary of the method: as §1

[5] = tested on: Klebsiella pneumoniae 968733; conditions: 968733
Summary of the method: as §1

[6] = tested on: Escherichia coli ATCC 25922; conditions: ATCC 25922
Summary of the method: as §1

[7] = tested on: Acinetobacter baumannii DSM 30008; conditions: DSM 30008
Summary of the method: as §1

[8] = tested on: human red blood cells (hRBC); test: Hemolysis; conditions: red cells of human, 1 h, 200
Summary of the method: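 Read-out is supernatant absorbance at 540 nm, normalised to full lysis by 2% Triton X-100 and zero lysis by PBS with 10% water. Peptides (200 μg/mL) were exposed to 20% v/v washed human erythrocytes at 37° C for 1 h under shaking.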

Row | Compound | MIC (Escherichia coli 926415) | MIC [1] | MIC [2] | MIC [3] | MIC [4] | MIC [5] | MIC [6] | MIC [7] | Hemolysis at 200 μg/mL [8] | Klebsiella pneumoniae SSI #3010 MIC [1] | Pseudomonas aeruginosa ATCC 27853 MIC [2] | Escherichia coli ATCC 25922 MIC [6] | Acinetobacter baumannii DSM 30008 MIC [7]
1 | CC(=O)N[C@H](C(=O)N[C@H]1CCCNC(=O)[C@@H]([C@H](C)O)NC(=O)[C@H](C(C)(C)C)NC(=O)[C@H](CO)NC(=O)[C@H](Cc2c[nH]c3ccccc23)NC(=O)[C@H](CCO)NC(=O)[C@@H](CCN)NC(=O)[C@H](CCC(=O)N[C@@H](CCN)C(=O)N[C@H](C(=O)N[C@@H](CN)C(=O)N[C@H]2CCNC(=O)[C@H]([C@@H](C)O)NC(=O)[C@H](CCN)NC(=O)[C@H](CCN)NC(=O)[C@H](CC(C)C)NC(=O)[C@@H](CC(C)C)NC(=O)[C@H](CCN)NC2=O)[C@@H](C)O)NC(=O)[C@H](CCN)NC(=O)[C@H](Cc2ccc(O)cc2)NC1=O)C(C)C [Ex. 16] (I: Ac-V[Orn]Y[Dab]E[dDab][hSer]WS[Tle][dT] / II: [Dab]T[Dap][Dab][Dab][dL]L[Dab][Dab]T; lactam I:2-I:C, II:4-II:C; amide I:5-II:N) | 0.25 µg/mL (≈ 0.107 µM) | 0.0625 µg/mL (≈ 0.0268 µM) | 0.25 µg/mL (≈ 0.107 µM) | 0.25 µg/mL (≈ 0.107 µM) | 0.25 µg/mL (≈ 0.107 µM) | 0.125 µg/mL (≈ 0.0536 µM) | 0.0625 µg/mL (≈ 0.0268 µM) | 0.0625 µg/mL (≈ 0.0268 µM) | <1% |  |  |  | 
2 | CC(=O)N[C@H](C(=O)N[C@H]1CSSC[C@@H](C(=O)N[C@@H](CO)C(=O)N[C@H](C)C(N)=O)NC(=O)[C@H](C(C)C)NC(=O)[C@H](CO)NC(=O)[C@H](Cc2c[nH]c3ccccc23)NC(=O)[C@H](CO)NC(=O)[C@@H](CCN)NC(=O)[C@H](CCC(=O)N[C@@H](CCN)C(=O)N[C@H](C(=O)N[C@@H](CN)C(=O)N[C@H]2CCNC(=O)[C@H]([C@@H](C)O)NC(=O)[C@H](CCN)NC(=O)[C@H](CCN)NC(=O)[C@H](CC(C)C)NC(=O)[C@@H](CC(C)C)NC(=O)[C@H](CCN)NC2=O)[C@@H](C)O)NC(=O)[C@H](CCN)NC(=O)[C@H](Cc2ccc(O)cc2)NC1=O)C(C)C [Ex. 378] (I: Ac-VCY[Dab]E[dDab]SWSVCS[dA]-NH2 / II: [Dab]T[Dap][Dab][Dab][dL]L[Dab][Dab]T; disulfide I:2-I:11; amide I:5-II:N; lactam II:4-II:C) | 0.0625 µg/mL (≈ 0.0253 µM) |  |  | 0.0625 µg/mL (≈ 0.0253 µM) | 0.0625 µg/mL (≈ 0.0253 µM) | 0.125 µg/mL (≈ 0.0506 µM) |  |  | <1% | 0.0625 µg/mL | 0.0625 µg/mL | 0.0625 µg/mL | 0.03125 µg/mL
3 | CC(=O)N[C@H](C(=O)N[C@H](C(=O)N[C@@H](Cc1ccc(O)cc1)C(=O)N[C@H]1CSSC[C@@H](C(=O)N[C@H](C(=O)N[C@@H](C)C(=O)N[C@H](C(N)=O)[C@@H](C)O)C(C)(C)C)NC(=O)[C@H](Cc2c[nH]c3ccccc23)NC(=O)[C@H](CO)NC(=O)[C@@H](CCN)NC(=O)[C@H](CCC(=O)N[C@@H](CCN)C(=O)N[C@H](C(=O)N[C@@H](CN)C(=O)N[C@H]2CCNC(=O)[C@H]([C@@H](C)O)NC(=O)[C@H](CCN)NC(=O)[C@H](CCN)NC(=O)[C@H](CC(C)C)NC(=O)[C@@H](CC(C)C)NC(=O)[C@H](CCN)NC2=O)[C@@H](C)O)NC1=O)[C@@H](C)O)C(C)C [Ex. 220] (I: Ac-VTYCE[dDab]SWC[Tle]AT-NH2 / II: [Dab]T[Dap][Dab][Dab][dL]L[Dab][Dab]T; disulfide I:4-I:9; amide I:5-II:N; lactam II:4-II:C) | 0.125 µg/mL (≈ 0.0518 µM) | 0.0625 µg/mL (≈ 0.0259 µM) | 0.125 µg/mL (≈ 0.0518 µM) | 0.125 µg/mL (≈ 0.0518 µM) | 0.0625 µg/mL (≈ 0.0259 µM) | 0.125 µg/mL (≈ 0.0518 µM) | 0.03125 µg/mL (≈ 0.013 µM) | 0.03125 µg/mL (≈ 0.013 µM) | <1% |  |  |  | 
4 | CC[C@@H]1NC(=O)[C@@H](CC(C)C)NC(=O)[C@H](CCN)NC(=O)[C@@H](NC(=O)[C@H](CN)NC(=O)[C@@H](NC(=O)[C@H](CCN)NC(=O)CC[C@@H]2NC(=O)[C@H](CCN)NC(=O)[C@H](Cc3ccc(O)cc3)NC(=O)[C@@H](NC(=O)[C@@H](NC(C)=O)C(C)C)CSSC[C@@H](C(=O)N[C@@H](CO)C(N)=O)NC(=O)[C@H](C(C)(C)C)NC(=O)[C@H](CO)NC(=O)[C@H](Cc3c[nH]c4ccccc34)NC(=O)[C@H](CO)NC(=O)[C@@H](CCN)NC2=O)[C@@H](C)O)CCNC(=O)[C@H]([C@@H](C)O)NC(=O)[C@H](CCN)NC(=O)[C@H](CCN)NC1=O [Ex. 136] (I: Ac-VCY[Dab]E[dDab]SWS[Tle]CS-NH2 / II: [Dab]T[Dap][Dab][Dab][dL][Abu][Dab][Dab]T; disulfide I:2-I:11; amide I:5-II:N; lactam II:4-II:C) | 0.0625 µg/mL (≈ 0.0262 µM) | 0.0625 µg/mL (≈ 0.0262 µM) | 0.25 µg/mL (≈ 0.105 µM) | 0.0625 µg/mL (≈ 0.0262 µM) | 0.03125 µg/mL (≈ 0.0131 µM) | 0.0625 µg/mL (≈ 0.0262 µM) | 0.03125 µg/mL (≈ 0.0131 µM) | 0.03125 µg/mL (≈ 0.0131 µM) | 3% |  |  |  | 
5 | CC(C)C[C@@H]1NC(=O)[C@@H](CC(C)C)NC(=O)[C@H](CCN)NC(=O)[C@@H](NC(=O)[C@H](CCN)NC(=O)[C@@H](NC(=O)[C@H](CCN)NC(=O)CC[C@@H]2NC(=O)[C@H](CCN)NC(=O)[C@H](Cc3ccc(O)cc3)NC(=O)[C@@H](NC(=O)[C@@H](NC(=O)[C@H](N)CO)C(C)C)CSSC[C@@H](C(=O)N[C@@H](CO)C(=O)N[C@H](C)C(=O)O)NC(=O)[C@H](C(C)(C)C)NC(=O)[C@H](CO)NC(=O)[C@H](Cc3c[nH]c4ccccc34)NC(=O)[C@H]([C@@H](C)O)NC(=O)[C@@H](CCN)NC2=O)[C@@H](C)O)CCNC(=O)[C@H]([C@@H](C)O)NC(=O)[C@H](CCN)NC(=O)[C@H](CCN)NC1=O [Ex. 241] (I: H-[dS]VCY[Dab]E[dDab]TWS[Tle]CS[dA]-OH / II: [Dab]T[Dab][Dab][Dab][dL]L[Dab][Dab]T; disulfide I:3-I:12; amide I:6-II:N; lactam II:4-II:C) | 1 µg/mL (≈ 0.391 µM) | 0.125 µg/mL (≈ 0.0489 µM) | 0.25 µg/mL (≈ 0.0977 µM) | 2 µg/mL (≈ 0.782 µM) | 0.125 µg/mL (≈ 0.0489 µM) | 1 µg/mL (≈ 0.391 µM) | 0.125 µg/mL (≈ 0.0489 µM) | 0.125 µg/mL (≈ 0.0489 µM) | <1% |  |  |  | 
6 | CC(=O)N[C@H](C(=O)N[C@H]1CSSC[C@@H](C(=O)N[C@@H](C)C(=O)N[C@@H](CO)C(N)=O)NC(=O)[C@H](C(C)C)NC(=O)[C@H](CO)NC(=O)[C@H](Cc2c[nH]c3ccccc23)NC(=O)[C@H](CO)NC(=O)[C@@H](CCN)NC(=O)[C@H](CCC(=O)N[C@@H](CCN)C(=O)N[C@H](C(=O)N[C@@H](CN)C(=O)N[C@H]2CCNC(=O)[C@H]([C@@H](C)O)NC(=O)[C@H](CCN)NC(=O)[C@H](CCN)NC(=O)[C@H](CC(C)C)NC(=O)[C@@H](CC(C)C)NC(=O)[C@H](CCN)NC2=O)[C@@H](C)O)NC(=O)[C@H](CCN)NC(=O)[C@H](Cc2ccc(O)cc2)NC1=O)C(C)C [Ex. 367] (I: Ac-VCY[Dab]E[dDab]SWSVCAS-NH2 / II: [Dab]T[Dap][Dab][Dab][dL]L[Dab][Dab]T; disulfide I:2-I:11; amide I:5-II:N; lactam II:4-II:C) | 0.0625 µg/mL (≈ 0.0253 µM) |  |  | 0.0625 µg/mL (≈ 0.0253 µM) | 0.03125 µg/mL (≈ 0.0127 µM) | 0.0625 µg/mL (≈ 0.0253 µM) |  |  | <1% | 0.03125 µg/mL | 0.0625 µg/mL | 0.01562 µg/mL | 0.007813 µg/mL
